US9421211B2, “N,N′-diarylurea compounds and N,N′-diarylthiourea compounds as inhibitors of translation initiation” (President and Fellows of Harvard College, priority 2009, dated 2016)

How the values were obtained:
[1] = tested on: eIF2.GTP.Met-tRNAi ternary complex; assay: Ternary complex assay: dual luciferase F-luc/R-luc ratio in KLN-tTA/pBISA-DL(ATF-4) cells (HTS screen, 96-well hit confirmation, dose response); format: cell-based, mouse; conditions: siRNA to PKR, PERK, GCN2; also CRL-2813 cells
From the text: For assay development, a bi-directional plasmid was designed in which a common promoter/enhancer complex drives the transcription of firefly luciferase (F-luc) ORF fused to the 5′ untranslated region (UTR) of ATF-4, and of the renilla luciferase (R-luc) ORF fused to a 90-nucleotide 5′ UTR derived from the plasmid (FIG. 6A). Because the tetracycline-regulated transactivator ((tTA), required for driving transcription from this vector) is not normally expressed in the mammalian cells, stable KLN cancer cells were constructed that expressed tTA (KLN-tTA).
The KLN-tTA colonies that drove expression of reporter genes from pBISA-DL plasmid were selected by transient transfection and dual luciferase assay. One of these KLN-tTA cell lines was transfected with the pBISA-DL^(ATF-4) expression vector, stable colonies were selected by dual luciferase assay and expanded. To determine if reduced availability of the eIF2.GTP.Met-tRNAi ternary complex increased the translation of firefly luciferase and decreased translation of renilla luciferase, selected KLN-tTA/pBISA-DL^(ATF-4) colonies were treated with thapsigargin (TG) or tunicamycin (TU), two agents known to cause phosphorylation of eIF2α.
This assay was then adapted for high throughput screening in 96 and 384 well plates. This was done by evaluating the cell density, length of exposure to compounds, DMSO tolerance and optimum firefly and renilla substrate. We then challenged these cells with thapsigargin or DMSO. […] Cell-based assays usually have higher variation than homogeneous in vitro assays due to position effect in the plate, and other variables associated with handling of cells and the plates.
Screening was conducted in 384 well white opaque plates (Nalge Nunc), 100 μl volume RPMI+10% fetal bovine serum. Cells were plated at the sub-confluent density of 10,000 cells/well, and allowed to attach for a period of 16-18 hours at 37° C., 5% CO2. Compounds were added as 1 μl of a 1 mM DMSO stock solution for a final screening concentration of […] using low-volume tips for transfer (Molecular Bioproducts). Cells were then incubated in the presence of compound for an additional sixteen hours, again at 37° C., 5% CO2. Following incubation 70 μl of the culture medium was removed from each well to allow for reagent addition and plates were allowed to equilibrate to room temperature for thirty minutes. Firefly luciferase reporter activity was then read by the addition of thirty microliters of Dual Glo Luciferase reagent (Promega), followed by one hour incubation at room temperature to allow for adequate signal buildup. Luminescence counting was conducted on a Microbeta Trilux using a 1 second read time. Renilla luciferase reporter activity was measured following addition of 30 μl Stop and Glo Luciferase reagent (Promega) and incubation identical to the one carried out for the firefly luciferase one.
Compound scores were interpreted as firefly luciferase activity divided by renilla luciferase activity, normalized to the plate's DMSO control. […] All data analysis was conducted using the BioAssay HTS software package (CambridgeSoft).
102,709 compounds in the NCI Open Chemical Repository were then screened using this HTS assay. […] Initial hits were confirmed by repeating the same dual luciferase assay in 96 well plates. Briefly, 20,000 cells/well were plated in triplicate for each concentration (10, 5 and 2.5 μM) of the compounds.

[2] = tested on: CHOP mRNA; assay: Endogenous CHOP mRNA by real-time PCR in KLN-tTA/pBISA-DL(ATF-4) cells; format: cell-based, mouse; conditions: siRNA to HRI, also CRL-2813 cells
From the text: (§1) For example, reducing amount of the ternary complex increases translation of ATF-4, which results in elevated expression of CHOP mRNA and protein. Therefore, expression of endogenous CHOP mRNA and CHOP protein in KLN-tTA/pBISA-DL^(ATF-4) cells were utilized as secondary assays to validate N,N′-diarylurea compounds as modifiers of the eIF2.GTP.Met-tRNAi ternary complex. […] To rule out the possibility that the activity of N,N′-diarylurea compounds was confined to a single cell type, the effects of these compounds on the ternary complex assay and the expression of CHOP mRNA was assayed in CRL-2351, PC-3, CRL-2813 human breast, prostate, and melanoma cancer cell lines respectively. For the reporter gene assay, the three human cell lines were co-transfected with tTA expression vector and the pBISA-DL^(ATF-4) dual luciferase expression vector shown in FIG. 6. […] The expression of CHOP mRNA was assayed by real time PCR in the same cell lines treated with 5 or 20 μM of each compound.
Real time PCR: For real time PCR, total RNA was extracted with TaqMan Gene Expression Cells-to-Ct™ Kit (Applied Biosystems, Branchburg, N.J.) according to manufacturer's protocol. Contaminating DNA was removed by DNase I treatment. […] To calibrate the results, all the transcripts quantities were normalized to 18S rRNA (was 18S ribosomal RNA-like mRNA in mouse). […]

[3] = tested on: eIF2α; assay: Phosphorylation of eIF2α in cells by Western blot (KLN-tTA/pBISA-DL(ATF-4), PC-3, CRL-2813); format: cell-based, mouse; human; conditions: CRL-2813, HRI siRNA
From the text: The amount of the eIF2.GTP.Met-tRNAi complex can be reduced by phosphorylation of eIF2α, reduced expression of Met-tRNAi, or eIF2α phosphorylation independent reduction in the activity of eIF2B, the eIF2 guanine nucleotide exchange factor. To determine which of these was the case, the effect of active N,N′-diarylureas on the phosphorylation of eIF2α was studied. […] To determine if the phosphorylation of eIF2α was responsible for reduced amount of the ternary complex in the cells treated with N,N′-diarylurea compounds, previously generated PC-3 human prostate cancer cell lines in which expression of endogenous eIF2α was replaced with recombinant wild type (WT) or non-phosphorylatable eIF2α-S51A were utilized.
Western blotting: Cell extracts were separated by SDS-PAGE and probed with anti-phosphoserine-51-eIF2 cc (PS51-eIF2α), anti-total eIF2α-specific antibodies […] (Biosource International, Hopkinton, Mass.), anti-CHOP, or anti β-actin (Santa Cruz Biotechnology, CA) as described.

[4] = biological target: T1, HRI (Oryctolagus cuniculus, UniProt P33279); assay: Phosphorylation of eIF2α in heme-supplemented rabbit reticulocyte lysate; format: biochemical; conditions: 30 minutes at 37° C.
T1 construct: from tissue; host or cells: rabbit reticulocyte lysate, heme supplemented
T1 sequence (P33279 whole entry): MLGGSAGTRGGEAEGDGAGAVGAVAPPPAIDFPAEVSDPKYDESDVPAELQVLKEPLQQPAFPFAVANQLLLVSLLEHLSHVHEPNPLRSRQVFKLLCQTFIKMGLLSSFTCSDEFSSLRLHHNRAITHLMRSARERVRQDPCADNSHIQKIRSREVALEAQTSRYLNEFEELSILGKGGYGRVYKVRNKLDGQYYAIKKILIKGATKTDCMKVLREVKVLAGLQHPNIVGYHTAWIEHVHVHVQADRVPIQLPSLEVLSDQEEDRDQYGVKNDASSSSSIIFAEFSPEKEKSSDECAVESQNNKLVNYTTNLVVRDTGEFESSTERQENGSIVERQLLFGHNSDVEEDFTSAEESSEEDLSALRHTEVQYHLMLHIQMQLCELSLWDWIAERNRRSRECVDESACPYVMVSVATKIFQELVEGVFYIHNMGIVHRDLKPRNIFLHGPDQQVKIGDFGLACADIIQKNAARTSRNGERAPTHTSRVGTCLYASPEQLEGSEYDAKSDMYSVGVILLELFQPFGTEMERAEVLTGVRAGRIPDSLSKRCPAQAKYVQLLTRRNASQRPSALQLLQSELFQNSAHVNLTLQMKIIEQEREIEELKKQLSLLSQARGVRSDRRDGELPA
Procedure: (§2) FIGS. 14A and 14B depict that N,N′-diarylurea compounds activate HRI in cell free lysates. A and B) Heme supplemented rabbit reticulocyte (a) or in-house prepared human melanoma cancer cell lysates (b) were incubated with the indicated concentration of compound 1781 for 30 minutes at 37° C. and phosphorylation of eIF2α was determined by Western blot analysis.
(§3) Compound #1781 was added to lysates of CRL-2813 cells or heme-supplemented rabbit reticulocytes and phosphorylation of eIF2α by Western blot was determined.

[5] = biological target: T2, HRI (Homo sapiens, UniProt Q9BQI3); assay: Phosphorylation of eIF2α in CRL-2813 human melanoma cell lysate; format: biochemical; conditions: CRL-2813 cell lysate, 30 minutes at 37° C.
T2 construct: endogenous in cells; host or cells: CRL-2813 human melanoma cells (lysate prepared in house)
T2 sequence (Q9BQI3 whole entry): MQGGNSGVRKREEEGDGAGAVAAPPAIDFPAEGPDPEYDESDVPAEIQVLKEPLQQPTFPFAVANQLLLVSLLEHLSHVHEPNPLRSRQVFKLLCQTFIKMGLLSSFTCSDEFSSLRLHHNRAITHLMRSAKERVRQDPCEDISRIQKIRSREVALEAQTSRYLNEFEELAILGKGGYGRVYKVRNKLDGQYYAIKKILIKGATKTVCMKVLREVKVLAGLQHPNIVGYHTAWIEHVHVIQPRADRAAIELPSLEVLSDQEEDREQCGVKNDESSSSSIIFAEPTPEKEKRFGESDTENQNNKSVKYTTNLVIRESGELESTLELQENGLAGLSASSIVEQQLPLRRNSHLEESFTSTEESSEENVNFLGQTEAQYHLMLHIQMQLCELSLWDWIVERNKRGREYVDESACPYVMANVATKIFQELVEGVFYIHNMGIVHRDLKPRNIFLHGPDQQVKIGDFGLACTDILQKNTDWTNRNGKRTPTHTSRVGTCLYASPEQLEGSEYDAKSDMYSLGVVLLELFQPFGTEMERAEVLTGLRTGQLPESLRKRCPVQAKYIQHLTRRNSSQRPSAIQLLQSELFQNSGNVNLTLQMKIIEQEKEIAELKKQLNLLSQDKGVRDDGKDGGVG
Procedure: as §2, §3

[6] = In vivo toxicity, seven day administration to mice; conditions: seven consecutive days, up to 200 mg/kg
Procedure: Five female nude mice each were treated with 200 mg/kg, 100 mg/kg #1781 in 15 μl DMSO or 15 μl DMSO daily for seven days. Mice were observed daily for signs of toxicity and weighed every other day for total of 15 days and then necropsy was performed. The average body of each group is plotted against the time.
To study toxicity effects, mice were treated with various doses of compound #1781 or vehicle.

[7] = tested on: eIF2.GTP.Met-tRNAi ternary complex; assay: ATF-4 assay (firefly/renilla luciferase ratio) in CRL-2351 cell line; format: cell-based, human
From the text: as §1
Stable and transient transfection: Cells were seeded at the density of 10^5 in 60-mm (stable transfection) or 10^4 cells per well of 96-well plate (transient transfection) plates and transfected one day later using the Qiagen Transfectamine transfection kit. For selection of stable cell lines, transfected cells were transferred to 100-mm plates and selected with appropriate antibiotics.
Dual luciferase assay: Cells or minced tumors expressing firefly and renilla luciferases were lysed and the extracts assayed with a glow type dual luciferase assay kit, per manufacturer's instruction (Promega Inc., Madison, Wis.).

[8] = tested on: KLN mouse squamous cell carcinoma cells; assay: Cell proliferation SRB assay, KLN; format: cell-based; conditions: KLN cells, read-out: IC50 (μM) by SRB assay, KLN
Procedure: (§4) Reduced availability of the ternary complex causes inhibition of translation initiation and thereby of cell proliferation. […] The effects of N,N′-diarylureas on the proliferation KLN mouse squamous cell carcinoma, CRL-2351 human breast, CRL-2813 human melanoma, A549 human lung and PC-3 human prostate cancer cell lines were tested.
(§5) Cell Growth Assay: Cell Growth was Measured by the SRB Assay.

[9] = tested on: CRL-2813 human melanoma cells; assay: Cell proliferation SRB assay, CRL-2813; format: cell-based; conditions: CRL2813, 2813 cells, read-out: IC50 (μM) by SRB assay, 2813
Procedure: as §4, with “tested. […]” for “tested.”
as §5

[10] = tested on: CRL-2351 human breast cancer cells; assay: Cell proliferation SRB assay, CRL-2351; format: cell-based; conditions: Homo sapiens; 2351 cells; read-out: IC50 (μM) by SRB assay, 2351
Procedure: as §4, §5

[11] = Solubility observed at purification; format: physicochemical; conditions: solvents tried for purification
Procedure: Because it could not be purified, this compound was removed from the structure-activity relationship (SAR) study.
As another non-limiting example, 3,4-dichlorophenylisocyanate (250 mg, 1.330 mmol) and 2-amino-4-hydroxy-6-methylpyrimidine (166 mg, 1.330 mmol) were used following the general procedure E to synthesize 28.

| Cmax ([7]; read-out: ATF-4 Cmax (μM): concentration corresponding to the maximal activity) [µM] | IC50 [8] [µM] | IC50 [9] [µM] | IC50 [10] [µM] | Solubility [11] | Structure (SMILES) | Induction of F-luc/R-luc ratio by the compound after knocking down PKR, PERK or GCN2 [1] | Induction of CHOP mRNA by the compound after knocking down HRI [2] | Induction of eIF2α phosphorylation by the compound after silencing of HRI [3] | Phosphorylation of eIF2α in cell lysates [4] | Phosphorylation of eIF2α in cell lysates [5] | Effect on weight gain or food consumption of mice [6] | maximal fold induction ([7]; Homo sapiens, read-out: ATF-4 Amax: maximal activity, ratio of firefly over renilla luciferase expression) | EC (activity threshold of 5) ([7]; Homo sapiens, read-out: ATF-4 C[5] (μM): concentration corresponding to an activity threshold of 5) [µM] |
| --- | --- | --- | --- | --- | --- | --- | --- | --- | --- | --- | --- | --- | --- |
| – | – | – | – | – | O=C(Nc1ccc(Cl)c(Cl)c1)Nc1ccc2nnsc2c1 [#1781] | no effect | abrogated | reduced | caused phosphorylation of eIF2α | caused phosphorylation of eIF2α | no adverse effect | – | – |
| 40 | 15 | 0.7 | 0.7 | not soluble in any solvent | O=C(Nc1cc(C(F)(F)F)cc(C(F)(F)F)c1)Nc1ncccc1O [Compound 28] | – | – | – | – | – | – | 5 | 40 |
